Results: PubChem BioAssay AID192 (DTP/NCI, 2004)
Inconclusive results and toxic doses are left out. The calls were made as follows: active = survival T/C of 150% or more; inactive = T/C below 125% in these data.

Tested on: BDF1 mice, B16 melanoma ip, median survival T/C
Assay: NCI In Vivo Anticancer Drug Screen. Data for tumor model B16 Melanoma (intraperitoneal) in B6D2F1 (BDF1) mice
Conditions: endpoint: median survival time, higher = longer survival
Summary of the method: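 Mice with transplantable tumors; drug vs vehicle groups; endpoint survival or tumor size; value = T/C.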

[1] = dose: 100.0 mg/kg/injection, schedule: Q01DX009 (ip), vehicle: Klucel (hydroxypropylcellulose) (HPC)
[2] = dose: 100.0 mg/kg/injection, schedule: Q01DX009 (ip), vehicle: saline
[3] = dose: 12.5 mg/kg/injection, schedule: Q01DX009 (ip), vehicle: saline with Tween-80
[4] = dose: 25.0 mg/kg/injection, schedule: Q01DX009 (ip), vehicle: saline with Tween-80

Measured: T/C

O=C(CC(=O)CC(O)(C(F)(F)F)C(F)(F)F)CC(O)(C(F)(F)F)C(F)(F)F
inactive: dose: 0.05 mg/kg/injection, schedule: Q01DX009 (ip), vehicle: saline 93 % of control | dose: 0.1 mg/kg/injection, schedule: Q01DX009 (ip), vehicle: saline 95 % of control | dose: 0.2 mg/kg/injection, schedule: Q01DX009 (ip), vehicle: saline 95 % of control | dose: 0.63 mg/kg/injection, schedule: Q04DX003 (ip), vehicle: saline 116 % of control | dose: 1.25 mg/kg/injection, schedule: Q04DX003 (ip), vehicle: saline 111 % of control | dose: 2.5 mg/kg/injection, schedule: Q04DX003 (ip), vehicle: saline 105 % of control | dose: 125.0 micrograms/kg/injection, schedule: Q01DX009 (ip), vehicle: saline with Tween-80 97 % of control

N#Cc1ccc(NC(=O)Nc2nccs2)cc1
inactive: dose: 12.5 mg/kg/injection, schedule: Q01DX009 (ip), vehicle: distilled water + Tween-80 115 % of control

O=C(O)c1cc2oc3ccccc3c2cc1O
inactive: dose: 50.0 mg/kg/injection, schedule: Q01DX009 (ip), vehicle: Klucel (hydroxypropylcellulose) (HPC) 116 % of control | [1] 110 % of control

CS(=O)(=O)O
inactive: [2] 106 % of control | dose: 200.0 mg/kg/injection, schedule: Q01DX009 (ip), vehicle: saline 113 % of control | dose: 400.0 mg/kg/injection, schedule: Q01DX009 (ip), vehicle: saline 123 % of control

ClC1=C(Cl)C2(Cl)C3C(Cl)C(Cl)CC3C1(Cl)C2(Cl)Cl (stereo unspecified)
inactive: [3] 95 % of control | [4] 97 % of control

C/C(=C\c1ccccc1)[N+](=O)[O-]
inactive: [4] 111 % of control | dose: 25.0 mg/kg/injection, schedule: Q04DX003 (ip), vehicle: saline with Tween-80 110 % of control | dose: 50.0 mg/kg/injection, schedule: Q01DX009 (ip), vehicle: saline with Tween-80 105 % of control | dose: 50.0 mg/kg/injection, schedule: Q04DX003 (ip), vehicle: saline with Tween-80 110 % of control

COc1cccc(CNc2ccc(SC)cc2)c1OC
inactive: [1] 100 % of control | dose: 200.0 mg/kg/injection, schedule: Q01DX009 (ip), vehicle: Klucel (hydroxypropylcellulose) (HPC) 93 % of control | dose: 400.0 mg/kg/injection, schedule: Q01DX009 (ip), vehicle: Klucel (hydroxypropylcellulose) (HPC) 93 % of control

O=c1oc2c(CN3CCCCC3)c(O)ccc2c2c1CCCC2
inactive: dose: 64.0 mg/kg/injection, schedule: Q01DX009 (ip), vehicle: Klucel (hydroxypropylcellulose) (HPC) 112 % of control | dose: 128.0 mg/kg/injection, schedule: Q01DX009 (ip), vehicle: Klucel (hydroxypropylcellulose) (HPC) 98 % of control | dose: 256.0 mg/kg/injection, schedule: Q01DX009 (ip), vehicle: Klucel (hydroxypropylcellulose) (HPC) 106 % of control | dose: 512.0 mg/kg/injection, schedule: Q01DX009 (ip), vehicle: Klucel (hydroxypropylcellulose) (HPC) 93 % of control

CNC(=S)N/N=C(/C)CCC/C(C)=N/NC(=S)NC
inactive: dose: 6.25 mg/kg/injection, schedule: Q01DX009 (ip), vehicle: saline with Tween-80 94 % of control | [3] 94 % of control | [4] 97 % of control

CCCCCCCCCCCCCC(=O)CC
inactive: dose: 9.4 mg/kg/injection, schedule: Q01DX009 (ip), vehicle: saline with Tween-80 95 % of control | dose: 18.75 mg/kg/injection, schedule: Q01DX009 (ip), vehicle: saline with Tween-80 87 % of control

C[C@@H]1CC[C@@]2(NC1)O[C@H]1C[C@H]3[C@@H]4CC=C5C[C@@H](O)CC[C@]5(C)[C@H]4CC[C@]3(C)[C@H]1[C@@H]2C
inactive: dose: 12.5 mg/kg/injection, schedule: Q01DX009 (ip), vehicle: Klucel (hydroxypropylcellulose) (HPC) 95 % of control

OCCOCCOCCN1CCN(C(c2ccccc2)c2ccc(Cl)cc2)CC1 (stereo unspecified)
inactive: dose: 12.5 mg/kg/injection, schedule: Q01DX009 (ip), vehicle: saline 108 % of control | dose: 25.0 mg/kg/injection, schedule: Q01DX009 (ip), vehicle: saline 110 % of control | dose: 50.0 mg/kg/injection, schedule: Q01DX009 (ip), vehicle: saline 86 % of control | [2] 86 % of control
